Counter-ions that a name gives are not always drawn. Like-named read-outs stand apart in the source and are kept apart here.

11 compounds from EP0729956B1, “Benzothiophene compounds, intermediates, compositions, and methods” (ELI LILLY AND COMPANY, priority 1995, dated 1996) can be followed below.

In data set [1] the test system is ovariectomized rats. Also noted: species or system Sprague Dawley rats. The following applies: rat, in vivo; for Uterine EPO (V. max): po. From the text:
(§1) Seventy-five day old female Sprague Dawley rats (weight range of 200 to 225g) were obtained from Charles River Laboratories (Portage, MI). The animals were either bilaterally ovariectomized (OVX) or exposed to a Sham surgical procedure at Charles River Laboratories, and then shipped after one week. Upon arrival, they were housed in metal hanging cages in groups of 3 or 4 per cage and had ad libitum access to food (calcium content approximately 0.5%) and water for one week. Room temperature was maintained at 22.2° ± 1.7° C with a minimum relative humidity of 40%. The photoperiod in the room was 12 hours light and 12 hours dark.
(§2) After a one week acclimation period (therefore, two weeks post-OVX) daily dosing with test compound was initiated. 17a-ethynyl estradiol or the test compound were given orally, unless otherwise stated, as a suspension in 1% carboxymethylcellulose or dissolved in 20% cyclodextrin. Animals were dosed daily for 4 days. Following the dosing regimen, animals were weighed and anesthetized with a ketamine: Xylazine (2:1, V:V) mixture and a blood sample was collected by cardiac puncture. The animals were then sacrificed by asphyxiation with CO2, the uterus was removed through a midline incision, and a wet uterine weight was determined.
Uteri were kept at 4° C until time of enzymatic analysis. The uteri were then homogenized in 50 volumes of 50 mM Tris buffer (pH - 8.0) containing 0.005% Triton X-100. Upon addition of 0.01% hydrogen peroxide and 10 mM O-phenylenediamine (final concentrations) in Tris buffer, increase in absorbance was monitored for one minute at 450 nm. The presence of eosonophils in the uterus is an indication of estrogenic activity of a compound. The maximal velocity of a 15 second interval was determined over the initial, linear portion of the reaction curve.

The test system of data set [2] is ovariectomized rats. Kind of data set: Serum cholesterol analysis (OVX rat, 4-day dosing). In kind it is in vivo, Sprague Dawley rats.
Text: as §1, §2
Blood samples were allowed to clot at room temperature for 2 hours, and serum was obtained following centrifugation for 10 minutes at 3000 rpm. Serum cholesterol was determined using a Boehringer Mannheim Diagnostics high performance cholesterol assay. Briefly the cholesterol was oxidized to cholest-4-en-3-one and hydrogen peroxide. The hydrogen peroxide was then reacted with phenol and 4-aminophenazone in the presence of peroxidase to produce a p-quinone imine dye, which was read spectrophotemetrically at 500 nm. Cholesterol concentration was then calculated against a standard curve. The entire assay was automated using a Biomek Automated Workstation.

The test system of data set [3] is ovariectomized test animals. Kind of data set: Osteoporosis Test Procedure (OVX rat, 35-day dosing, distal femur metaphysis X-ray image analysis). In kind it is in vivo, Sprague Dawley rats. The following applies: OVX rats, daily for 35 days; for Distal Femur Metaphysis (X-ray Image Analysis-Gray Score): mean ± SEM.
Text: as §1
Following the General Preparation Procedure, infra, the rats were treated daily for 35 days (6 rats per treatment group) and sacrificed by carbon dioxide asphyxiation on the 36th day. The 35 day time period was sufficient to allow maximal reduction in bone density, measured as described herein. At the time of sacrifice, the uteri were removed, dissected free of extraneous tissue, and the fluid contents were expelled before determination of wet weight in order to confirm estrogen deficiency associated with complete ovariectomy. […] The uteri were then placed in 10% neutral buffered formalin to allow for subsequent histological analysis.
The right femurs were excised and digitilized x-rays generated and analyzed by an image analysis program (NIH image) at the distal metaphysis. The proximal aspect of the tibiae from these animals were also scanned by quantitative computed tomography.
In accordance with the above procedures, compounds of the present invention and ethynyl estradiol (EE2) in 20% hydroxypropyl b-cyclodextrin were orally administered to test animals. Distal femur metaphysis data presented in Tables 2 and 3 below are the results of formula I compound treatments compared to intact and ovariectomized test animals. Results are reported as the mean ± the standard error of the mean.

The mark [4] stands for this setting: Rattus norvegicus, po, 96 h, daily for 4 days, read-out: Serum Cholesterol (% decrease vs. OVX).
Setting [5] is: Table 3, oral, dose 0.1 mg/kg, OVX control 6.2 ± 1.4, Sham 31.1 ± 6.3.

Regarding `Oc1ccc(-c2sc3cc(O)ccc3c2Oc2ccc(OCCCN3CCCCC3)cc2)cc1` [Example 27, [6-Hydroxy-3-[4-[3-(piperidino)propoxy]phenoxy]-2-(4-hydroxyphenyl)]benzo[b]thiophene hydrochloride], the “Uterine EPO (V. max)” value was 3.3 in data set [1] (0.01 mg/kg), 4.8 in data set [1] (0.1 mg/kg) and 52.5 in data set [1] (1 mg/kg). Also, in data set [2] (setting [4]), the inhibition in vivo at 0.01 mg/kg came out at 12.2%. In data set [2] (setting [4]), the inhibition in vivo at 0.1 mg/kg turned out to be 50.8%. The inhibition in vivo at 1 mg/kg in data set [2] (setting [4]) was determined as 76.5%.
Regarding `CCS(=O)(=O)Oc1ccc(-c2sc3cc(OS(=O)(=O)CC)ccc3c2Oc2ccc(OCCN3CCCCC3)cc2)cc1` [Example 44, [6-Ethylsulfonyloxy-3-[4-[2-(1-piperidinyl)ethoxy]-phenoxy]-2-(4-ethylsulfonyloxyphenyl)] benzo[b]thiophene hydrochloride], the “Uterine EPO (V. max)” value in data set [1] (0.01 mg/kg) is given as 3.6; in data set [1] (0.1 mg/kg), 88.5; in data set [1] (1 mg/kg), 94.5. Further, the inhibition in vivo at 0.01 mg/kg in data set [2] (setting [4]) came to 12.6%. In data set [2] (setting [4]), the inhibition in vivo at 0.1 mg/kg worked out at 43.8%. In addition, the inhibition in vivo at 1 mg/kg in data set [2] (setting [4]) was determined as 67.4%.
For the compound `CCN(CC)CCOc1ccc(Oc2c(-c3ccc(O)cc3)sc3ccccc23)cc1` [Example 5, [3-[4-[2-(1-N,N-diethylamino)ethoxy]phenoxy]-2-(4-bydroxyphenyl)]benzo[b]thiophene], in data set [1] (0.1 mg/kg), the “Uterine EPO (V. max)” value was 7.2. The “Uterine EPO (V. max)” value in data set [1] (1 mg/kg) was 54.6. The “Uterine EPO (V. max)” value in data set [1] (10 mg/kg) is reported as 59.4. Moreover, in data set [2] (setting [4]), the inhibition in vivo at 0.1 mg/kg was found to be 67.2%, the inhibition in vivo at 1 mg/kg amounted to 67.7% and the inhibition in vivo at 10 mg/kg came out at 60.2%.
`O=C(Oc1ccc(-c2sc3cc(OC(=O)c4ccccc4)ccc3c2Oc2ccc(OCCN3CCCCC3)cc2)cc1)c1ccccc1` [Example 43, [6-Benzoyloxy-3-[4-[2-(1-piperidinyl)-ethoxy]phenoxy]-2-(4-benzoyloxyphenyl)]benzo[b]thiophene hydrochloride]: the “Uterine EPO (V. max)” value in data set [1] (0.01 mg/kg) came out at 3.3. Moreover, in data set [1] (0.1 mg/kg), the “Uterine EPO (V. max)” value came out at 4.8. The “Uterine EPO (V. max)” value in data set [1] (1 mg/kg) was 6.0. Also, in data set [2] (setting [4]), the inhibition in vivo at 0.01 mg/kg worked out at 9.2%, the inhibition in vivo at 0.1 mg/kg worked out at 43.8% and the inhibition in vivo at 1 mg/kg was determined as 39.4%.
Turning to `Oc1ccc(-c2sc3ccccc3c2Oc2ccc(OCCN3CCCCCC3)cc2)cc1` [Example 4, [3-[4-[2-(1-hexamethyleneimino)ethoxy]phenoxy]-2-(4-hydroxypbenyl)]benzo[b]thiophene], the “Uterine EPO (V. max)” value in data set [1] (0.1 mg/kg) came out at 3.9; in data set [1] (1 mg/kg), 4.8; in data set [1] (10 mg/kg) it was 3.0. In addition, in data set [2] (setting [4]), the inhibition in vivo at 0.1 mg/kg amounted to 53.7%. The inhibition in vivo at 1 mg/kg in data set [2] (setting [4]) was determined as 62.1%. In addition, in data set [2] (setting [4]), the inhibition in vivo at 10 mg/kg came to 65.3%.
As to `Oc1ccc(-c2sc3cc(O)ccc3c2Oc2ccc(OCCN3CCOCC3)cc2)cc1` [Example 24, [6-Hydroxy-3-[4-[2-(morpholino)ethoxy]phenoxy]-2-(4-hydroxyphenyl)]benzo[b]thiophene hydrochloride], the “Distal Femur Metaphysis (X-ray Image Analysis-Gray Score)” value is 18.3 ± 2.6∗ in data set [3] (setting [5]); 19.6 ± 2.3∗ in data set [3] (Table 3, oral, dose 1.0 mg/kg, OVX control 6.2 ± 1.4, Sham 31.1 ± 6.3); 17.1 ± 5.5 in data set [3] (Table 3, oral, dose 3.0 mg/kg, OVX control 6.2 ± 1.4, Sham 31.1 ± 6.3). Also, the “Uterine EPO (V. max)” value in data set [1] (0.01 mg/kg) was determined as 3.6; in data set [1] (0.1 mg/kg), 0.9; in data set [1] (1 mg/kg) it was 29.4. Besides, the inhibition in vivo at 0.01 mg/kg in data set [2] (setting [4]) worked out at 23.7%. In addition, the inhibition in vivo at 0.1 mg/kg in data set [2] (setting [4]) was determined as 46.4%. Moreover, the inhibition in vivo at 1 mg/kg in data set [2] (setting [4]) amounted to 79.3%.
Consider `c1ccc(-c2sc3ccccc3c2Oc2ccc(OCCN3CCCCC3)cc2)cc1` [Example 7, [3-[4-[2-(1-piperidinyl)ethoxy]phenoxy]-2-(phenyl)]benzo [b]thiophene hydrochloride], for which the “Uterine EPO (V. max)” value in data set [1] (0.1 mg/kg) amounted to 4.8; in data set [1] (1 mg/kg), 4.5; in data set [1] (5 mg/kg) it was 4.8. For the same compound, in data set [2] (setting [4]), the inhibition in vivo at 0.1 mg/kg came to 56.2%. For the same compound, the inhibition in vivo at 1 mg/kg in data set [2] (setting [4]) came out at 42.6%. Also, the inhibition in vivo at 5 mg/kg in data set [2] (Rattus norvegicus, po, 96 h, daily for 4 days, dose 5.0 mg/kg, read-out: Serum Cholesterol (% decrease vs. OVX)) worked out at 29.5%.
For the compound `CCN(CC)CCCOc1ccc(Oc2c(-c3ccc(O)cc3)sc3cc(O)ccc23)cc1` [Example 25, [6-Hydroxy-3-[4-[3-(1-N,N-diethylamino)propoxy]phenoxy]-2-(4-hydroxyphenyl)]benzo [b]thiophene hydrochloride], the “Uterine EPO (V. max)” value in data set [1] (0.01 mg/kg) was 3.0. Further, in data set [1] (0.1 mg/kg), the “Uterine EPO (V. max)” value is given as 3.3. The “Uterine EPO (V. max)” value in data set [1] (1 mg/kg) is on record as 36.0. Moreover, in data set [2] (setting [4]), the inhibition in vivo at 0.01 mg/kg worked out at 13.1%, the inhibition in vivo at 0.1 mg/kg turned out to be 67.6% and the inhibition in vivo at 1 mg/kg came out at 73.9%.
Regarding `C#C[C@]1(O)CC[C@H]2[C@@H]3CCc4cc(O)ccc4[C@H]3CC[C@@]21C` [EE2, 17a-ethynyl estradiol, reference compound], the “bone loss / femur density after ovariectomy (in words)” value in data set [3] (oral) is “prevented this loss”. Moreover, the “Distal Femur Metaphysis (X-ray Image Analysis-Gray Score)” value in data set [3] (Table 2, oral in 20% hydroxypropyl b-cyclodextrin, dose 0.1 mg/kg, OVX control 8.1 ± 1.8, Sham 27.2 ± 6.0) was 11.5 ± 2.9∗; in data set [3] (setting [5]), 17.8 ± 3.5. Besides, the “eosinophil infiltration into the uterus (in words)” value in data set [1] was “substantial, expected increase in eosinophil infiltration”. For the same compound, the “Uterine EPO (V. max)” value in data set [1] (0.1 mg/kg) is 308.1. Moreover, the inhibition in vivo at 0.1 mg/kg in data set [2] (setting [4]) was 94.8%. For the same compound, in data set [2] (oral, 4 days, EE2 at 0.1 mg/kg/day), the “serum cholesterol compared to the ovariectomized control animals (in words)” value is “caused a decrease in serum cholesterol”.
Regarding `Oc1ccc(-c2sc3cc(O)ccc3c2Oc2ccc(OCCN3CCCCC3)cc2)cc1` [Example 20, [6-hydroxy-3-[4-[2-(1-piperidinyl)ethoxy]-phenoxy]-2-(4-hydroxyphenyl)]benzo [b]thiophene hydrochloride], the “Uterine EPO (V. max)” value is given as 0.9 in data set [1] (0.01 mg/kg), 3.0 in data set [1] (0.05 mg/kg) and 3.0 in data set [1] (0.1 mg/kg). In addition, the inhibition in vivo at 0.05 mg/kg in data set [2] (Rattus norvegicus, po, 96 h, daily for 4 days, dose 0.05 mg/kg, read-out: Serum Cholesterol (% decrease vs. OVX)) is 35.9%.
As to `CC(C)N(CCOc1ccc(Oc2c(-c3ccc(O)cc3)sc3cc(O)ccc23)cc1)C(C)C` [Example 26, [6-Hydroxy-3-[4-[2-(1-N,N-diisopropylamino)-ethoxy]phenoxy]-2-(4-hydroxyphenyl)]benzo[b]thiophene hydrochloride], the “Uterine EPO (V. max)” value in data set [1] (0.01 mg/kg) was 4.8; in data set [1] (0.1 mg/kg) it was 29.1; in data set [1] (1 mg/kg), 175.1. Besides, the inhibition in vivo at 0.01 mg/kg in data set [2] (setting [4]) was determined as 29%. Further, in data set [2] (setting [4]), the inhibition in vivo at 0.1 mg/kg came to 45.2%. Besides, in data set [2] (setting [4]), the inhibition in vivo at 1 mg/kg came out at 62.7%.
